The numbers were not newly measured in PMC8348686, “The Pharmacological Profile of Second Generation Pyrovalerone Cathinones and Related Cathinone Derivative” (International Journal of Molecular Sciences, 2021), which cites them from elsewhere.

One series concerns the target T1, h5-HT2B receptor (Homo sapiens, UniProt P41595).
T1 construct: expressed in transfected cells; host or cells: HEK293
Also noted: method as in Rickli et al. (2015). To be noted: read-out: h5-HT2B Activation Potency EC50 ± SD; ref Rickli et al. (2015); cited from earlier work.

For a further series, the target named is T2, h5-HT2C receptor (Homo sapiens, UniProt P28335).
T2 construct: expressed in transfected cells; host or cells: HEK293 cell preparations
T2 sequence (P28335 33-458): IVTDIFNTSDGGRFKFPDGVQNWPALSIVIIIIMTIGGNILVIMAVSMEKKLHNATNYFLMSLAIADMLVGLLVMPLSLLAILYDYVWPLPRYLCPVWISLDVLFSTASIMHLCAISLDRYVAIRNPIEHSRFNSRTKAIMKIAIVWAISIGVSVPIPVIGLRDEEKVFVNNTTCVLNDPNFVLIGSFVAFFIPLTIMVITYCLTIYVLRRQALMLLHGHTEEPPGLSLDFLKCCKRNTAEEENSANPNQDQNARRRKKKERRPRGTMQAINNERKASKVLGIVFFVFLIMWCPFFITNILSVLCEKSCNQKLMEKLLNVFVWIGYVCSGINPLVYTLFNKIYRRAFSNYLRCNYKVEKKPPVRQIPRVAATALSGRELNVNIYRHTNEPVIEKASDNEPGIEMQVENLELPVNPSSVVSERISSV
To be noted: read-out: h5-HT2C Receptor Binding Ki ± SD; [3H]-Mesulgerine; ref Simmler et al. (2013); cited from earlier work.

For a further series, the target named is dopaminergic D2 receptor (Homo sapiens, UniProt P14416). To be noted: read-out: D2 Receptor Binding Ki ± SD; [3H]-Spiperone; ref Simmler et al. (2013); cited from earlier work.
A further series has as its target T3, adrenergic α1A receptor (Homo sapiens, UniProt P35348).
T3 sequence (P35348 1-466): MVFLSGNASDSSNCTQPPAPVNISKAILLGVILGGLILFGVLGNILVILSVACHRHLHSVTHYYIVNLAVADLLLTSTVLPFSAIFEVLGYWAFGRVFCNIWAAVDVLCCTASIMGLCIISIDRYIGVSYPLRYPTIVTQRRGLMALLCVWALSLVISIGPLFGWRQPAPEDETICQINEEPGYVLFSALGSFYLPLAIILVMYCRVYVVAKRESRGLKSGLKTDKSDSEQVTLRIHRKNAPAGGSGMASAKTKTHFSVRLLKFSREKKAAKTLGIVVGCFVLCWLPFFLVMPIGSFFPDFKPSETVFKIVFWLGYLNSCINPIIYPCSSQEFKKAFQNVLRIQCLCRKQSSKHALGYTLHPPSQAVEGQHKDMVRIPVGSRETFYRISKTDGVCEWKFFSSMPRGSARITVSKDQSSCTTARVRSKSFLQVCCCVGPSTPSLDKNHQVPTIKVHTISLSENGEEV
Conditions: read-out: α1A Receptor Binding Ki ± SD; [3H]-Prazosin; ref Simmler et al. (2013); cited from earlier work.

Another series concerns the target T4, adrenergic α2A receptor (Homo sapiens, UniProt P08913).
T4 sequence (P08913 1-465): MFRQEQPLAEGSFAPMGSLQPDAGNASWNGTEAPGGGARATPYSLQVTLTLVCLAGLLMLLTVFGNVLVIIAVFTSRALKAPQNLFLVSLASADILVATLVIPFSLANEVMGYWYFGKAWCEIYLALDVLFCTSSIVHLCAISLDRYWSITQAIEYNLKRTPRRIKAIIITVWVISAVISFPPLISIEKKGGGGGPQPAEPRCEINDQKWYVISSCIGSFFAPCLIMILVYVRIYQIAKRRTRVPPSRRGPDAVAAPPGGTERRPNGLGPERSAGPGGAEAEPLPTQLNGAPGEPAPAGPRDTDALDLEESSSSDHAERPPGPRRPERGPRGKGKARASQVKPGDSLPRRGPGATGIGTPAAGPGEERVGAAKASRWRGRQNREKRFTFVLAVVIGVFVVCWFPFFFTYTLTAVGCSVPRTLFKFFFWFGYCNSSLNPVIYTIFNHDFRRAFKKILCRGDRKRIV
Conditions: read-out: α2A Receptor Binding Ki ± SD; [3H]-Rauwolscine; ref Simmler et al. (2013); cited from earlier work.

A further series deals with Human TAAR1. More on the design: method as in Simmler et al. (2016). To be noted: ref Simmler et al. (2016); read-out: Human TAAR1 Activation Potency EC50 ± SD; cited from earlier work.
Another series has as its target Rat TAAR1. To be noted: [3H]-RO5166017; ref Simmler et al. (2013); read-out: Rat TAAR1 Receptor Binding Ki ± SD; cited from earlier work.
The next series has as its target Mouse TAAR1. Conditions: [3H]-RO5166017; ref Simmler et al. (2013); read-out: Mouse TAAR1 Receptor Binding Ki ± SD; cited from earlier work.
In the next series the target is h5-HT2A receptor (Homo sapiens, UniProt P28223). Also noted: expressed in transfected cells; host or cells: HEK293 cell preparations. To be noted: read-out: h5-HT2A Receptor Binding Ki ± SD; [3H]-Ketanserin; ref Simmler et al. (2013); cited from earlier work.
Sequence of h5-HT2A receptor (P28223 whole entry): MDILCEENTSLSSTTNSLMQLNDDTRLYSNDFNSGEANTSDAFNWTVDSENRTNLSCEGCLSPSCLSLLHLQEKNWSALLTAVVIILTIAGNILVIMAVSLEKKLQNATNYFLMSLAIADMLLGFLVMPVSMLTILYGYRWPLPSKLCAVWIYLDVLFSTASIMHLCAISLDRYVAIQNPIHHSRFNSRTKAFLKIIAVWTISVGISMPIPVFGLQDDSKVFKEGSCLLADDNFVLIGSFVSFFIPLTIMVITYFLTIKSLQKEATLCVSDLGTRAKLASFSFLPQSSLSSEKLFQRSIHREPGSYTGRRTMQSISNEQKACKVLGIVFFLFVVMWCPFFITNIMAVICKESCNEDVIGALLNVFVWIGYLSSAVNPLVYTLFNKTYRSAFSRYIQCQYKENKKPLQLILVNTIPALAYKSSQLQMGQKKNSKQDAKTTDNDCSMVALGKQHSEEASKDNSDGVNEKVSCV

Sequence of dopaminergic D2 receptor (P14416 whole entry): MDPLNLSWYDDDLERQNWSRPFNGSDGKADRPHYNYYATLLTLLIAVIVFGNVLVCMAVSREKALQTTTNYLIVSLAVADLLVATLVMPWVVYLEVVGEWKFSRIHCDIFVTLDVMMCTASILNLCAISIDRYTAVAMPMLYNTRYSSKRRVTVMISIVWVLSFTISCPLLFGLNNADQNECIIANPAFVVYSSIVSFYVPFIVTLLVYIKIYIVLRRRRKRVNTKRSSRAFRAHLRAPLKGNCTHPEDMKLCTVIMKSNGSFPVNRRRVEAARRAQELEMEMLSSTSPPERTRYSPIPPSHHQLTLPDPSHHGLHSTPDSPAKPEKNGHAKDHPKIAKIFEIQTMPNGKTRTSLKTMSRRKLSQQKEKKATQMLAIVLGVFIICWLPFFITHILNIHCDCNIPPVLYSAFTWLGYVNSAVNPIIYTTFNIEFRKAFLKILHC
T1 sequence (P41595 whole entry): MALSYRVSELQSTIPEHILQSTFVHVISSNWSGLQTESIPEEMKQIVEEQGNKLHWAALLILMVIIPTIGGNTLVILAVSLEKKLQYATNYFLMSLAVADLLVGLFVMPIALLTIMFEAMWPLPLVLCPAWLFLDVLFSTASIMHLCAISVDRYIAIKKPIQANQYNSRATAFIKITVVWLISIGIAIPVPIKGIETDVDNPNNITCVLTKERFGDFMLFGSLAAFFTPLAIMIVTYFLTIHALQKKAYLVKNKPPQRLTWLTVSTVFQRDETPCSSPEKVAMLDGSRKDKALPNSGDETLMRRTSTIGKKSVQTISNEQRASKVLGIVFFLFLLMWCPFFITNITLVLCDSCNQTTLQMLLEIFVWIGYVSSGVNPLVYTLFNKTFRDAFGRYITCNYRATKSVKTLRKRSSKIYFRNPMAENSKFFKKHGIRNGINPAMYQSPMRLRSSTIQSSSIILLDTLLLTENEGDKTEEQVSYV

In the case of `CC(N)Cc1ccccc1` (stereo not drawn) [Amphetamine, amphetamine, reference compound], the EC50 at h5-HT2B receptor is 9400 ± 1600 nM; with Human TAAR1 it was 2800 ± 800 nM. Moreover, the Ki at h5-HT2C receptor is greater than 13000 nM; at dopaminergic D2 receptor it was greater than 30000 nM; at adrenergic α1A receptor it was greater than 6000 nM; on adrenergic α2A receptor, 2800 ± 800 nM; at Rat TAAR1 it was 230 ± 180 nM; on Mouse TAAR1, 90 ± 60 nM. The Ki at h5-HT2A receptor was greater than 13000 nM.

For orientation: EC50 means the concentration giving half of the maximal effect. By Ki is commonly meant a dissociation constant, usually derived from enzyme kinetics or from competition with a known ligand.
